Assay results as given in patent US12162863B2, “Modulators of stimulator of interferon genes (STING)” (RYVU THERAPEUTICS S.A., priority 2018, dated 2024).

Tests used:
human STING = human STING (Homo sapiens, UniProt Q86WV6); assay: Fluorescence Thermal Shift assay; format: binding; details: 50 μM compound; STING 0.1 mg/ml; 20 minutes preincubation; read-out: [hSTING] FTS, ΔTm [° C.] for 50 μM
Outline: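 Human STING at a final 0.1 mg/ml was preincubated with compound for 20 min in 50 mM Hepes, 150 mM NaCl, pH 7.5, then SyproOrange dye was added. Thermal unfolding ran from 25 to 99° C at 0.033° C/s, continuous ramp. Values are reported as ΔTm (° C).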

[1] = test system: interferon regulatory factor (IRF) pathway in THP-1 dual cells; assay: THP-1 Dual Reporter Assay, IRF pathway (luciferase reporter); format: cell-based; details: Homo sapiens, THP1-Dual, 18 h of stimulation, luminescence
Outline: (§1)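 THP-1 dual cells stimulated 18 h with STING agonist; medium then sampled. IRF pathway: luciferase (ISG54 promoter/ISRE) read as luminescence immediately after reagent addition. NF-κB pathway: SEAP (IFN-β minimal promoter/NF-κB elements) developed 2 h at 37 °C, absorbance at 630 nm.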

[2] = test system: NF-κB pathway in THP-1 dual cells; assay: THP-1 Dual Reporter Assay, NF-κB pathway (SEAP reporter); format: cell-based; details: Homo sapiens, THP1-Dual, 18 h of stimulation, absorbance at 630 nm, read-out: THP1 Dual EC50 (μM) NFkB
Outline: as §1

Chain of human STING (Q86WV6 whole entry H232R): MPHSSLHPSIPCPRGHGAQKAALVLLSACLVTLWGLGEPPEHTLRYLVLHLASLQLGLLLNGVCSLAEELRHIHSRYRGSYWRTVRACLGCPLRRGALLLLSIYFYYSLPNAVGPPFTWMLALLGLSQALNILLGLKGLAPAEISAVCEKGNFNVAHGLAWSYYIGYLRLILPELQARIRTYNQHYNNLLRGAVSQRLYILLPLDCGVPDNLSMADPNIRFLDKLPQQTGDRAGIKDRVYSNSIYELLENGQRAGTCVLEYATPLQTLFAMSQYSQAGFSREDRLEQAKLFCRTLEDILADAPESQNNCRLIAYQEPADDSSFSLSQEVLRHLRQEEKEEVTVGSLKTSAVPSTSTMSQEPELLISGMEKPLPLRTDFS

SMILES | ΔTm at 50 µM (human STING) [°C] | EC50 [1] [µM] | EC50 [2] [µM]
Cc1oc2cc(F)c(F)cc2c(=O)c1CN(CCCn1cnc2ccccc21)Cc1ccncc1 [Example 99, 3-({[3-(1H-1,3-benzodiazol-1-yl)propyl][(pyridin-4-yl)methyl]amino}methyl)-6,7-difluoro-2-methyl-4H-chromen-4-one] | > 2.5 | ≤ 10 | ≤ 10
O=c1c(CN(CCCn2ccnc2)Cc2ccncc2)coc2c1cc(F)c1ccccc12 [Example 47, 6-fluoro-3-({[3-(1H-imidazol-1-yl)propyl][(pyridin-4-yl)methyl]amino}methyl)-4H benzo[h]chromen-4-one] | > 2.5 | ≤ 10 | ≤ 10
